Measured values reported in the supplement of paper PMC10307832.

Experiments:
Assay in all cases: relative viability (nuclei count vs DMSO), 5 days (fraction); higher = more cells survive
[1] = compound: O=C(Nc1cccc(C(F)(F)F)c1)Nc1cc(S(=O)(=O)NC2CC2)ccc1-c1ccsc1 [AGI-6780] + COc1cc2c(Oc3ccc(NC(=O)C4(C(=O)Nc5ccc(F)cc5)CC4)cc3F)ccnc2cc1OCCCN1CCOCC1 [Foretinib] (partner 0.25 µM)
Summary of the method: (§1)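 Nuclei were stained with Hoechst during a one-step fixation (final 0.05% Triton X-100, 1% formaldehyde, 1 ug/ml Hoechst) carried out 5 days after dosing, then counted on 4× images. The cells, lung cancer lines in 1536-well plates, had been dosed by pin tool the day after seeding with one drug alone or a fixed anchor-drug dose plus five library-drug doses (not always all listed) in √10 steps. Relative viability is the nuclei count in treated wells divided by that in vehicle wells, and each value is the median of duplicate plates.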

[2] = compound: O=C(Nc1cccc(C(F)(F)F)c1)Nc1cc(S(=O)(=O)NC2CC2)ccc1-c1ccsc1 [AGI-6780] + Cc1nc(NC(=O)N2CCC[C@H]2C(N)=O)sc1-c1ccnc(C(C)(C)C(F)(F)F)c1 [Alpelisib] (partner 2 µM)
Summary of the method: as §1

[3] = compound: O=C(Nc1cccc(C(F)(F)F)c1)Nc1cc(S(=O)(=O)NC2CC2)ccc1-c1ccsc1 [AGI-6780] + Nc1nc2[nH]cc(CCc3ccc(C(=O)N[C@@H](CCC(=O)O)C(=O)O)cc3)c2c(=O)[nH]1 [Pemetrexed] (partner 0.2 µM)
Summary of the method: as §1

[4] = compound: O=C(Nc1cccc(C(F)(F)F)c1)Nc1cc(S(=O)(=O)NC2CC2)ccc1-c1ccsc1 [AGI-6780] + O=C(c1cc(Cc2n[nH]c(=O)c3ccccc23)ccc1F)N1CCN(C(=O)C2CC2)CC1 [Olaparib] (partner 8 µM)
Summary of the method: as §1

Cell Line	relative viability ([1]; first compound 0.08 µM)	relative viability ([1]; first compound 0.253 µM)	relative viability ([1]; first compound 0.8 µM)	relative viability ([1]; first compound 2.53 µM)	relative viability ([1]; first compound 8 µM)	relative viability ([2]; first compound 0.08 µM)	relative viability ([2]; first compound 0.253 µM)	relative viability ([2]; first compound 0.8 µM)	relative viability ([2]; first compound 2.53 µM)	relative viability ([2]; first compound 8 µM)	relative viability ([3]; first compound 0.08 µM)	relative viability ([3]; first compound 0.253 µM)	relative viability ([3]; first compound 0.8 µM)	relative viability ([3]; first compound 2.53 µM)	relative viability ([3]; first compound 8 µM)	relative viability ([4]; first compound 0.08 µM)	relative viability ([4]; first compound 0.253 µM)	relative viability ([4]; first compound 0.8 µM)	relative viability ([4]; first compound 2.53 µM)	relative viability ([4]; first compound 8 µM)
NCI-H23	1.12	0.968	1.02	0.96	0.865	0.971	0.745	0.811	0.473	0.791	0.568	0.733	0.758	0.787	0.799	0.302	0.271	0.288	0.354	0.349
PC-14	0.902	1.1	1.02	0.941	0.979	0.947	0.986	0.944	0.913	0.961	0.143	0.147	0.141	0.16	0.134	0.378	0.282	0.234	0.318	0.276
NCI-H727	1.07	0.982	0.98	0.626	1.02	0.679	0.588	0.742	0.491	0.548	–	–	–	–	–	0.65	0.757	0.705	0.597	0.66
NCI-H647	1.1	1.2	1.31	1.11	1.4	1.19	1.16	1.24	1.06	1.13	0.173	0.192	0.119	0.2	0.178	0.622	0.579	0.705	0.479	0.488
EKVX	0.684	0.91	0.756	0.399	0.849	0.96	0.839	0.995	0.755	0.898	0.381	0.403	0.342	0.388	0.4	0.894	0.811	0.935	0.763	0.863
NCI-H838	1.13	1.02	0.987	0.895	1.02	1.05	0.927	1.01	0.825	0.959	0.258	0.251	0.249	0.23	0.225	0.844	0.771	0.836	0.712	0.735
NCI-H1355	0.956	0.98	1.06	0.911	1.04	0.98	0.894	0.848	0.696	0.787	1.07	1.17	1.02	0.937	1	0.838	0.791	0.773	0.65	0.71
ChaGo-K-1	0.986	0.977	0.946	0.751	0.948	–	–	–	–	–	0.26	0.267	0.261	0.255	0.25	0.437	0.457	0.377	0.411	0.422
LK-2	1.23	1.15	1.21	–	1.53	1.27	1.1	1.29	–	0.986	0.228	0.359	0.28	–	0.366	0.643	0.778	0.945	–	0.755
NCI-H1563	0.901	0.977	1.02	0.89	0.992	0.923	0.934	0.846	0.992	0.874	0.712	0.822	0.748	0.655	0.518	–	–	–	–	–
NCI-H1648	–	–	–	–	–	–	–	–	–	–	0.655	0.884	0.864	0.841	0.779	0.89	0.807	0.783	0.497	0.415
Calu-6	0.88	0.871	0.96	0.89	0.885	1.01	0.977	0.97	0.945	1.04	–	–	–	–	–	0.598	0.601	0.584	0.559	0.543
SW 900	0.953	0.763	1.03	0.81	0.917	–	–	–	–	–	0.461	0.484	0.457	0.524	0.469	0.741	0.826	0.923	0.878	0.803
NCI-H1299	1.09	1.07	1.07	1.05	1.12	1.02	1.04	0.971	1.09	1.02	–	–	–	–	–	0.982	0.964	0.948	0.908	0.961
NCI-H1650	1.07	1.23	1.06	1.24	1.13	–	–	–	–	–	0.4	0.367	0.366	0.418	0.358	0.884	0.774	0.934	0.689	0.791
IA-LM	1.28	1.13	1.21	1.13	1.15	0.858	0.846	0.719	0.797	0.707	–	–	–	–	–	1.05	0.763	1	0.869	0.927
NCI-H1703	–	0.327	0.333	0.36	0.393	0.377	0.278	0.424	0.344	0.251	–	–	–	–	–	0.728	0.37	0.457	0.373	0.25
HCC-44	–	–	–	–	–	0.874	0.755	0.826	0.626	0.817	0.657	0.681	0.601	0.631	0.616	1.03	0.989	0.98	0.979	1.02
ABC-1	1.13	1.17	1.11	1.07	0.941	1.14	0.918	1.08	0.829	1.24	–	–	–	–	–	–	0.965	0.888	0.779	0.792
NCI-H522	–	–	–	–	–	–	–	–	–	–	1.23	1.04	0.913	–	1.05	0.527	0.636	0.746	–	0.551
